Test results as given in US7053194B2, “Compositions and methods for p53-mediated repression of gene expression” (Fox Chase Cancer Center, priority 1999, dated 2006).

What was measured:
Assay type in all cases: cell-based, human
MCF7 cells = assay: Cyclin-dependent kinase assays; conditions: MCF7 treated with doxorubicin
Description: Cyclin-dependent kinase assays were performed essentially as described (Harper et al., 1993), using 250 ug of whole cell extract immunoprecipitated with 0.5 ug of polyclonal antisera to cdk2 (Santa Cruz Biotechnology), cyclin E and cyclin A. Following immunoprecipitation and washing, 1 ug of histone H1 (Sigma) was used as a substrate, in kinase reaction buffer (20 mM Tris pH 7.4/7.5 mM MgCl2/1 mM DTT), supplemented with 5 mM sodium fluoride, 1 mM sodium ortho-vanadate, and 125 ng/uL cAMP-dependent protein kinase inhibitor (Sigma). 0.5 uL of ^32P-ATP (NEN, 800 Ci/mmol) was added to each reaction, and 0.5 ug of normal rabbit IgG (Sigma) was used as a negative control. Following incubation at 37 degrees for 20 minutes, reactions were boiled in Laemmli sample buffer and loaded onto 10% SDS-PAGE. Cells for flow cytometry were fixed in ethanol and stained with propidium iodide as described (Murphy et al., Genes & Devel. 10:2971–2980, 1996) and analyzed on a Becton Dickinson FacScan. G1, S (synthesis) and G2/M populations were calculated using the program CellQuest.
This finding is consistent with flow cytometry data, which indicate that these cells are arrested in G2/M (not shown). As a negative control, normal rabbit IgG is used instead of polyclonal antisera for the immunoprecipitations and kinase assays (lanes 1 and 4).

[1] = test system: MCF7 breast carcinoma cells; assay: Western analysis of p53 and survivin protein after doxorubicin; conditions: twenty-four hour treatment
Description: MCF-7 cells were maintained in RPMI-1640 supplemented with 10% fetal bovine serum and 100 units/ml of penicillin and streptomycin. The human melanoma cell line CaCl, and the derivative clone expressing the HPV E6 gene, were cultured as described (Ahn et al., Oncogene). The human osteosarcoma cell lines Saos-2 and U2-OS (kindly provided by Peter Adams, Fox Chase Cancer Center), the murine p21 knock-out fibroblasts (kindly provided by James Sherley, MIT) and the human lung adenocarcinoma cell line H1299 were cultured in DMEM supplemented with 10% fetal bovine serum and 100 units/ml of penicillin and streptomycin. […] For treatment with ultra-violet light, cells were irradiated with 0–10 J/m2 (as noted) of UV-C with a Spectroline X series ultraviolet lamp, and output was monitored with a traceable UV light meter (Fisher Scientific). For drug treatment, cells were treated with 0.5ug/ml adriamycin (doxorubicin, Sigma), or dilution vehicle alone, for twenty-four hours. p53 induction was monitored by western analysis of 100 ug protein as described (Murphy et al., Genes & Devel. 10:2971–2980, 1996), using 0.1ug/ml DO-1 (Ab-6, Calbiochem) or 421 (Ab-1, Calbiochem.
Western analysis was performed essentially as described (Murphy et al., 1999). […] Protein concentrations were determined using the Bio-Rad Dc Protein Assay (Bio-Rad). […]

melanoma cells (CaCl) = assay: Northern analysis of survivin mRNA after doxorubicin; conditions: 0.5 ug/mL doxorubicin, as early as twelve hours
Description: MCF-7 cells were maintained in RPMI-1640 supplemented with 10% fetal bovine serum and 100 units/ml of penicillin and streptomycin. The human melanoma cell line CaCl, and the derivative clone expressing the HPV E6 gene, were cultured as described (Ahn et al., Oncogene). The human osteosarcoma cell lines Saos-2 and U2-OS (kindly provided by Peter Adams, Fox Chase Cancer Center), the murine p21 knock-out fibroblasts (kindly provided by James Sherley, MIT) and the human lung adenocarcinoma cell line H1299 were cultured in DMEM supplemented with 10% fetal bovine serum and 100 units/ml of penicillin and streptomycin. Murine Va15 cells, containing the temperature-sensitive Valine 135 allele of p53, were maintained as described (Wu, et al., Genes & Devel. 7:1126–1132, 1993). All cells were grown at 37° C. […] For treatment with ultra-violet light, cells were irradiated with 0–10 J/m2 (as noted) of UV-C with a Spectroline X series ultraviolet lamp, and output was monitored with a traceable UV light meter (Fisher Scientific). […]
The full-length coding region for survivin was generated by reverse transcription-polymerase chain reaction (RT-PCR) using 5 ug of total RNA from the H1299 human lung adenocarcinoma cell line, using the Access RT-PCR kit (Promega) and the following oligonucleotides: forward 5′ […] […] Autoradiographs were quantitated using NIH image software. […]

SMILES: COc1cccc2c1C(=O)c1c(O)c3c(c(O)c1C2=O)C[C@@](O)(C(=O)CO)C[C@@H]3O[C@H]1C[C@H](N)[C@H](O)[C@H](C)O1 [adriamycin, doxorubicin]
- cdk2, cyclin A and cyclin E kinase activities (MCF7 cells): all activities are low
- cell cycle arrest (MCF7 cells): arrest in G2/M phase
- decrease of survivin protein levels [1]: 3–4 fold
- induction of p53 expression [1]: 4 fold
- mRNA levels for survivin (melanoma cells (CaCl)): marked decreases in mRNA levels for survivin
